In patent publication US9718762B2, “Insecticidal compounds” (Syngenta Participations AG, priority 2013, dated 2017):

Columns and labels:
Assay type in all cases: in vivo
Myzus persicae = Myzus persicae (green peach aphid) sunflower leaf disc spray test; details: foliar, 144 h, 200 ppm spray on sunflower leaf discs, aphid population of mixed ages, 6 DAT, mortality
Method: (§1) Myzus persicae (Green Peach Aphid): Sunflower leaf discs were placed on agar in a 24-well microtiter plate and sprayed with test solutions at an application rate of 200 ppm. After drying, the leaf discs were infested with an […] population of mixed ages. After an incubation period of 6 DAT, samples were checked for mortality.

Spodoptera littoralis = Spodoptera littoralis (Egyptian cotton leafworm) cotton leaf disc spray test; details: foliar, 72 h, 200 ppm spray on cotton leaf discs, L1 larvae, 3 days after treatment, mortality, feeding behavior, growth regulation
From the text: Spodoptera littoralis (Egyptian Cotton Leafworm): Cotton leaf discs were placed on agar in a 24-well microtiter plate and sprayed with test solutions at an application rate of 200 ppm. After drying, the leaf discs were infested with 5 L1 larvae. The samples were checked for mortality, feeding behavior, and growth regulation 3 days after treatment (DAT).

Thrips tabaci = Thrips tabaci (onion thrips) sunflower leaf disc spray test; details: foliar, 168 h, 200 ppm spray on sunflower leaf discs, population of mixed ages, 7 days, mortality
Method: as §1, with “Thrips tabaci (Onion Thrips):” for “Myzus persicae (Green Peach Aphid):”, “7 days,” for “6 DAT,”

Diabrotica balteata = Diabrotica balteata (corn root worm) artificial diet test; details: 120 h, 200 ppm (concentration in well 18 ppm), L2 larvae, 5 days, larval mortality, growth regulation
Method: (§2) Diabrotica balteata (Corn Root Worm): A 24-well microtiter plate (MTP) with artificial diet was treated with test solutions at an application rate of 200 ppm (concentration in well 18 ppm) by pipetting. After drying, the MTP's were infested with L2 larvae (6-10 per well). After an incubation period of 5 days, samples were checked for larval mortality and growth regulation.

Tetranychus urticae = Tetranychus urticae (two-spotted spider mite) bean leaf disc spray test; details: foliar, 192 h, 200 ppm spray on bean leaf discs, mite populations of mixed ages, 8 days, egg, larval and adult mortality
From the text: Tetranychus urticae (Two-Spotted Spider Mite): Bean leaf discs on agar in 24-well microtiter plates were sprayed with test solutions at an application rate of 200 ppm. After drying, the leaf discs are infested with mite populations of mixed ages. 8 days later, discs are checked for egg mortality, larval mortality, and adult mortality.

Heliothis virescens = Heliothis virescens (tobacco budworm) egg test on artificial diet; details: 96 h, 200 ppm (concentration in well 18 ppm), eggs on artificial diet, 4 days, egg mortality, larval mortality, growth regulation
Method: Heliothis virescens (Tobacco Budworm): Eggs (0-24 h old) were placed in 24-well microtiter plate on artificial diet and treated with test solutions at an application rate of 200 ppm (concentration in well 18 ppm) by pipetting. After an incubation period of 4 days, samples were checked for egg mortality, larval mortality, and growth regulation.

Plutella xylostella = Plutella xylostella (diamond back moth) artificial diet test; details: 144 h, 200 ppm (concentration in well 18 ppm), L2 larvae, 6 days, larval mortality, growth regulation
Method: as §2, with “Plutella xylostella (Diamond Back Moth):” for “Diabrotica balteata (Corn Root Worm): A”, “(7-12” for “(6-10”, “6” for “5”

Measured: pest or weed control at 200 ppm

COc1c(C(=O)Nc2c(Cl)cc(C(F)(C(F)(F)F)C(F)(F)F)cc2Cl)cccc1N(C)C(=O)c1ccc(C#N)cc1 [Compound 7]
≥ 80%: all assays above

CCc1cc(C(F)(C(F)(F)F)C(F)(F)F)cc(Br)c1NC(=O)c1cccc(N(CC)C(=O)c2ccc(C#N)cc2)c1 [Compound 8]
not listed: Spodoptera littoralis
≥ 80%: all other assays above

CCN(C(=O)c1ccc(C#N)cc1)c1cccc(C(=O)Nc2c(Br)cc(C(F)(C(F)(F)F)C(F)(F)F)cc2Br)c1OC [Compound 5]
≥ 80%: all assays above

CCN(C(=O)c1ccc(C#N)cc1)c1cccc(C(=O)Nc2c(Cl)cc(C(F)(C(F)(F)F)C(F)(F)F)cc2Cl)c1OC [Compound 2]
≥ 80%: all assays above

CCc1cc(C(F)(C(F)(F)F)C(F)(F)F)cc(Cl)c1NC(=O)c1cccc(N(CC)C(=O)c2ccc(C#N)cc2)c1OC [Compound 12]
≥ 80%: all assays above

CCN(C(=O)c1ccc(C#N)cc1)c1cccc(C(=O)Nc2c(Cl)cc(C(F)(C(F)(F)F)C(F)(F)F)cc2Br)c1OC [Compound 1, N-[2-bromo-6-chloro-4-[1,1,1,2,3,3,3-heptafluoro-prop-2-yl]phenyl]-3-[(4-cyanobenzoyl)-ethyl-amino]-2-methoxy-benzamide]
≥ 80%: all assays above

CCc1cc(C(F)(C(F)(F)F)C(F)(F)F)cc(C)c1NC(=O)c1cccc(N(CC)C(=O)c2ccc(C#N)cc2)c1OC [Compound 3]
≥ 80%: all assays above

CCc1cc(C(F)(C(F)(F)F)C(F)(F)F)cc(Cl)c1NC(=O)c1cccc(N(C)C(=O)c2ccc(C#N)cc2)c1OC [Compound 11]
≥ 80%: all assays above

COc1c(C(=O)Nc2c(Cl)cc(C(F)(C(F)(F)F)C(F)(F)F)cc2Br)cccc1N(C)C(=O)c1ccc(C#N)cc1 [Compound 4]
≥ 80%: all assays above

CCc1cc(C(F)(C(F)(F)F)C(F)(F)F)cc(CC)c1NC(=O)c1cccc(N(CC)C(=O)c2ccc(C#N)cc2)c1OC [Compound 9]
≥ 80%: all assays above

CCc1cc(C(F)(C(F)(F)F)C(F)(F)F)cc(Br)c1NC(=O)c1cccc(N(C)C(=O)c2ccc(C#N)cc2)c1OC [Compound 10]
≥ 80%: all assays above

COc1c(C(=O)Nc2c(Br)cc(C(F)(C(F)(F)F)C(F)(F)F)cc2Br)cccc1N(C)C(=O)c1ccc(C#N)cc1 [Compound 6]
≥ 80%: all assays above
